The text below walks through data of patent US8828931B2, “Bifunctional molecules for inhibiting HIV entry” (priority 2008, dated 2014).

The subject of one data set is HIV-1 IIIB (B, X4). How it is done: The inhibitory activity of the bifunctional molecule on HIV-1 IIIB infection was determined by ELISA for p24 production (Jiang S et al. J Exp Med 174:1557-1563, 1991). Briefly, MT-2 cells were infected with HIV-1IIIB at 100 TCID50 (50% tissue culture infective dose) in RPMI 1640 medium containing 10% FBS in the presence or absence of an antigen specific antiserum or IgG antibody in serial 2-fold dilutions at 37° C. overnight. The culture supernatants were then removed and fresh media were added. On day 4 post-infection, the culture supernatants were collected and mixed with equal volumes of 5% Triton X-100 for the detection in the p24 protein ELISA.

The subject of the next data set is 93IN101 (B, R5). In kind it is cell-based, HIV-1. How it is done: (§1) Briefly, the peripheral blood mononuclear cells (PBMCs) were isolated from the blood of healthy donors using a standard density gradient (Histopaque-1077, Sigma) centrifugation. After incubation at 37° C. for 2 hr, the nonadherent cells were collected and resuspended at 5×10^5/ml in RPMI 1640 medium containing 10% FBS, 5 μg of phytohemagglutinin (PHA)/ml, and 100 U of IL-2/ml, followed by incubation at 37° C. for 3 days. The PHA-stimulated cells were infected with the corresponding primary HIV-1 isolates at a multiplicity of infection (MOI) of 0.01 in the absence or presence of antisera at a serial 2-fold dilution. The supernatants were collected 7 days post-infection and tested for p24 antigen by ELISA as described above. The IC50 was calculated using the CalcuSyn
(§2) software as described above.

A further data set concerns 92US657 (B, R5). In kind it is cell-based, HIV-1. The procedure:
as §1, §2

The nature of data set [1]: In vitro stability in human serum, residual activity by cell-cell fusion inhibition assay. The following applies: 16 μM, 37° C., 100% human serum. The text has this:
(§3) Samples were collected at different intervals and tested for the residual concentrations of the active component using cell-cell fusion inhibition assay as described above.

Data set [2] is described as follows: In vitro stability in PBMC culture, residual activity by cell-cell fusion inhibition assay. The following applies: 16 μM, 37° C.
Text: as §3

In a further data set the target is proteinase K (Parengyodontium album, UniProt P06873). The data set is described as follows: Resistance to proteolysis by proteinase K. The following applies: 4 μM in PBS, immobilized proteinase K 0.1 unit/ml, 37° C.
In data set [3] the test system is HIV-1 IIIB-mediated cell fusion (H9/HIV-1 IIIB effector cells, MT-2 target cells). The following applies: H9/HIV-1 IIIB and MT-2 cells, dye transfer. The procedure: HIV-1-mediated cell-cell fusion was determined by a dye transfer assay (Lu H et al. J Virol Methods 107:155-161, 2003) using Calcein AM-labeled HIV-1IIIB chronically infected H9 (H9/HIV-1 IIIB) cells as effector cells and MT-2 cells as target cells.

Another data set relates to NL4-3V38A/N42G. How it is done:
Briefly, 2×10^5 or 5×10^5 CEMx174 5.25M7 cells were infected with HIV-1 or HIV-2, respectively, at 100 TCID50 (50% tissue culture infective dose) in RPMI 1640 medium containing 10% FBS in the absence or presence of an antisera or purified IgG antibodies at graded concentrations overnight. On the fourth day post-infection, cells were harvested and lysed using a lysis buffer (Promega, Madison, Wis.). The luciferase activity was measured by Ultra 384 luminometer reader (Tecan) and the percent inhibition was calculated.

Read-outs that look alike come from different tables or passages of the source. No end group written: not given here.

Sequence of proteinase K (P06873 106-384): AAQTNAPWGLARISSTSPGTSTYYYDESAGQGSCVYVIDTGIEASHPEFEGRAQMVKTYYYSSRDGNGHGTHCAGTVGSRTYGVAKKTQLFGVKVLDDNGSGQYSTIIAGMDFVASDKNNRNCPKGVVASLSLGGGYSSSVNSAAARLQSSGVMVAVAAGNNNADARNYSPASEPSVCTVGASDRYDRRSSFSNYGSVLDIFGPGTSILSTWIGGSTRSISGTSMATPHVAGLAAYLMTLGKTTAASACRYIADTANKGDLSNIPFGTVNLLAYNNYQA

Turning to enfuvirtide, the IC50 with HIV-1 IIIB (B, X4) (IIIB (B, X4)) is 0.0681 µM; with 93IN101 (B, R5), 0.0027 µM; with 92US657 (B, R5) it was 0.0017 µM; in data set [3] (read-out: IC50, concentration for inhibiting HIV-1 IIIB-mediated cell fusion) it was 0.0159 µM; in the data set with NL4-3V38A/N42G (read-out: IC50, HIV-1 replication, NL4-3V38A/N42G, T20-resistant HIV-1 strain, luciferase), over 2 µM. For the same substance, the IC90 is 0.211 µM in the data set on HIV-1 IIIB (B, X4) (IIIB (B, X4)); 0.0065 µM in the data set with 93IN101 (B, R5); 0.013 µM in the data set with 92US657 (B, R5); 0.0254 µM in data set [3] (read-out: IC90, concentration for inhibiting HIV-1 IIIB-mediated cell fusion); over 2 µM in the data set with NL4-3V38A/N42G (read-out: IC90, HIV-1 replication, NL4-3V38A/N42G, T20-resistant HIV-1 strain, luciferase). Further, the “residual activity in human serum after 6 days” value in data set [1] was determined as 5%. For the same substance, the “time after which activity began to be lost in PBMC” value in data set [2] (PBMC in RPMI1640 with 10% FBS) is recorded as over 2 days. The “activity lost in PBMC after 6 days incubation” value in data set [2] (PBMC, 6 days) is over 90%. In addition, at proteinase K, the “treatment time with proteinase K after which activity was totally lost” value was found to be 5 min. In addition, the “inhibition of infection by T20-resistant strain” value with NL4-3V38A/N42G (concentration up to 2,000 nM) is reported as “no inhibition”.

On to “TTWMAWDREINNYTSLIHSLIRRSQNQQEKNEQELLELDKWASLLWNWF [T1144-C10]”, for which the IC50 in the data set with HIV-1 IIIB (B, X4) (read-out: IC50, HIV-1 replication, IIIB (B, X4), MT-2 cells, p24) was over 0.25 µM. In the data set with HIV-1 IIIB (B, X4) (read-out: IC90, HIV-1 replication, IIIB (B, X4), MT-2 cells, p24), the IC90 was over 0.25 µM.
